Experimental data as given in patent US20250353820A1, “ANTIVIRAL PYRAZOLOPYRIDINONE COMPOUNDS” (Novartis AG, priority 2019, published 2025).

These compounds were tested against human HSV DNA polymerase UL30 (Human herpesvirus 1 (strain 17) (HHV-1) (Human herpes simplex virus 1), UniProt P04293) (assay: biochemical). Details: 625 pM HSV polymerase, 20 minutes at room temperature; read-out: HSV-polymerase Biochemical IC50.
Compound `Cn1nc(C(=O)NCc2ccc(C#N)cc2)c2c1C(=O)N(CC1(S(=O)(=O)C(C)(C)COC(F)(F)CN)CC1)CC2` [Example 85, 6-((1-((1-(2-Amino-1,1-difluoroethoxy)-2-methylpropan-2-yl)sulfonyl)cyclopropyl)methyl)-N-(4-cyanobenzyl)-1-methyl-7-oxo-4,5,6,7-tetrahydro-1H-pyrazolo[3,4-c]pyridine-3-carboxamide] has an IC50 of 49 nM.
`Cn1nc(C(=O)NCc2ccc(C#N)cc2)c2c1C(=O)N(CC1(S(=O)(=O)C(C)(C)COCC(C)(C)O)CC1)CC2` [Example 86, N-(4-Cyanobenzyl)-6-((1-((1-(2-hydroxy-2-methylpropoxy)-2-methylpropan-2-yl)sulfonyl)cyclopropyl)methyl)-1-methyl-7-oxo-4,5,6,7-tetrahydro-1H-pyrazolo[3,4-c]pyridine-3-carboxamide] was tested, and the IC50 was 159 nM.
Compound `Cn1nc(C(=O)NCc2ccc(Cl)cc2)c2c1C(=O)N(CC1(S(=O)(=O)C(C)(C)COCCO)CC1)CC2` [Example 88, N-(4-Chlorobenzyl)-6-((1-((1-(2-hydroxyethoxy)-2-methylpropan-2-yl)sulfonyl)cyclopropyl)methyl)-1-methyl-7-oxo-4,5,6,7-tetrahydro-1H-pyrazolo[3,4-c]pyridine-3-carboxamide] has an IC50 of 39 nM.
In the case of `Cn1nc(C(=O)NCc2ccc(C#N)cc2)c2c1C(=O)N(CC1(S(=O)(=O)C3(COCCN)CC3)CC1)CC2` [Example 96, 6-((1-((1-((2-aminoethoxy)methyl)cyclopropyl)sulfonyl)cyclopropyl)methyl)-N-(4-cyanobenzyl)-1-methyl-7-oxo-4,5,6,7-tetrahydro-1H-pyrazolo[3,4-c]pyridine-3-carboxamide], the IC50 is reported as 20 nM.
Work on `CNCCOCC(C)(C)S(=O)(=O)C1(CN2CCc3c(C(=O)NCc4ccc(C#N)cc4)nn(C)c3C2=O)CC1` [Example 101, N-(4-Cyanobenzyl)-1-methyl-6-((1-((2-methyl-1-(2-(methylamino)ethoxy)propan-2-yl)sulfonyl)cyclopropyl)methyl)-7-oxo-4,5,6,7-tetrahydro-1H-pyrazolo[3,4-c]pyridine-3-carboxamide] yielded an IC50 of 32 nM.
`Cn1nc(C(=O)NCc2ccc(C#N)cc2)c2c1C(=O)N(CC1(S(=O)(=O)C(C)(C)COC3CNC3)CC1)CC2` [Example 102, 6-((1-((1-(Azetidin-3-yloxy)-2-methylpropan-2-yl)sulfonyl)cyclopropyl)methyl)-N-(4-cyanobenzyl)-1-methyl-7-oxo-4,5,6,7-tetrahydro-1H-pyrazolo[3,4-c]pyridine-3-carboxamide] showed an IC50 of 42 nM.
Compound `Cn1nc(C(=O)NCc2ccc(C#N)cc2)c2c1C(=O)N(CC1(S(=O)(=O)C(C)(C)COCC(C)(C)N)CC1)CC2` [Example 103, 6-((1-((1-(2-Amino-2-methylpropoxy)-2-methylpropan-2-yl)sulfonyl)cyclopropyl)methyl)-N-(4-cyanobenzyl)-1-methyl-7-oxo-4,5,6,7-tetrahydro-1H-pyrazolo[3,4-c]pyridine-3-carboxamide] has an IC50 of 117 nM.
`CN(C)CCOCC(C)(C)S(=O)(=O)C1(CN2CCc3c(C(=O)NCc4ccc(C#N)cc4)nn(C)c3C2=O)CC1` [Example 104, N-(4-Cyanobenzyl)-6-((1-((1-(2-(dimethylamino)ethoxy)-2-methylpropan-2-yl)sulfonyl)cyclopropyl)methyl)-1-methyl-7-oxo-4,5,6,7-tetrahydro-1H-pyrazolo[3,4-c]pyridine-3-carboxamide] gave an IC50 of 108 nM.
In the case of `CNC(=O)C(C)(C)S(=O)(=O)C1(CN2CCc3c(C(=O)NCc4ccc(Cl)cc4)nn(C)c3C2=O)CC1` [Example 110, N-(4-Chlorobenzyl)-1-methyl-6-((1-((2-methyl-1-(methylamino)-1-oxopropan-2-yl)sulfonyl)cyclopropyl)methyl)-7-oxo-4,5,6,7-tetrahydro-1H-pyrazolo[3,4-c]pyridine-3-carboxamide], the IC50 is reported as 166 nM.
With `Cn1nc(C(=O)NCc2ccc(C#N)cc2)c2c1C(=O)N(CC1(S(=O)(=O)C3(CCO)CC3)CC1)CC2` [Example 117, N-(4-Cyanobenzyl)-6-((1-((1-(2-hydroxyethyl)cyclopropyl)sulfonyl)cyclopropyl)methyl)-1-methyl-7-oxo-4,5,6,7-tetrahydro-1H-pyrazolo[3,4-c]pyridine-3-carboxamide] the IC50 was 59 nM.
`Cn1nc(C(=O)NCc2ccc(C#N)cc2)c2c1C(=O)N(CC1(S(=O)(=O)CC(C)(C)O)CC1)CC2` [Example 118, N-(4-Cyanobenzyl)-6-((1-((2-hydroxy-2-methylpropyl)sulfonyl)cyclopropyl)methyl)-1-methyl-7-oxo-4,5,6,7-tetrahydro-1H-pyrazolo[3,4-c]pyridine-3-carboxamide] gave an IC50 of 412 nM.
`Cn1nc(C(=O)NCc2ccc(Cl)cc2)c2c1C(=O)N(CC1(S(N)(=O)=O)CC1)CC2` [Example 121, N-(4-Chlorobenzyl)-1-methyl-7-oxo-6-((1-sulfamoylcyclopropyl)methyl)-4,5,6,7-tetrahydro-1H-pyrazolo[3,4-c]pyridine-3-carboxamide] gave an IC50 of 671 nM.
`CN(C)/C=N/S(=O)(=O)C1(CN2CCc3c(C(=O)NCc4ccc(Cl)cc4)nn(C)c3C2=O)CC1` [Example 122, (E)-N-(4-Chlorobenzyl)-6-((1-(N-((dimethylamino)methylene)sulfamoyl)cyclopropyl)methyl)-1-methyl-7-oxo-4,5,6,7-tetrahydro-1H-pyrazolo[3,4-c]pyridine-3-carboxamide] was tested, and the IC50 was 324 nM.
Compound `Cn1nc(C(=O)NCc2ccc(C#N)cc2)c2c1C(=O)N(CC1(S(=O)(=O)N3CCOCC3)CC1)CC2` [Example 124, N-(4-Cyanobenzyl)-1-methyl-6-((1-(morpholinosulfonyl)cyclopropyl)methyl)-7-oxo-4,5,6,7-tetrahydro-1H-pyrazolo[3,4-c]pyridine-3-carboxamide] has an IC50 of 121 nM.
For `Cn1nc(C(=O)NCc2ccc(C#N)cc2)c2c1C(=O)N(CC1(S(=O)(=O)N3CCC(O)CC3)CC1)CC2` [Example 125, N-(4-Cyanobenzyl)-6-((1-((4-hydroxypiperidin-1-yl)sulfonyl)cyclopropyl)methyl)-1-methyl-7-oxo-4,5,6,7-tetrahydro-1H-pyrazolo[3,4-c]pyridine-3-carboxamide], the IC50 was 136 nM.
`Cn1nc(C(=O)NCc2ccc(C#N)cc2)c2c1C(=O)N(CC1(S(=O)(=O)N3CC[C@@H](O)C3)CC1)CC2` [Example 126, (R)-N-(4-Cyanobenzyl)-6-((1-((3-hydroxypyrrolidin-1-yl)sulfonyl)cyclopropyl)methyl)-1-methyl-7-oxo-4,5,6,7-tetrahydro-1H-pyrazolo[3,4-c]pyridine-3-carboxamide] was tested, and the IC50 was 84 nM.
Work on `Cn1nc(C(=O)NCc2ccc(C#N)cc2)c2c1C(=O)N(CC1(S(=O)(=O)N3CC[C@H](O)C3)CC1)CC2` [Example 127, (S)-N-(4-Cyanobenzyl)-6-((1-((3-hydroxypyrrolidin-1-yl)sulfonyl)cyclopropyl)methyl)-1-methyl-7-oxo-4,5,6,7-tetrahydro-1H-pyrazolo[3,4-c]pyridine-3-carboxamide] yielded an IC50 of 67 nM.
`Cn1nc(C(=O)NCc2ccc(C#N)cc2)c2c1C(=O)N(CC1(S(=O)(=O)NC3CC3)CC1)CC2` [Example 129, N-(4-cyanobenzyl)-6-((1-(N-cyclopropylsulfamoyl)cyclopropyl)methyl)-1-methyl-7-oxo-4,5,6,7-tetrahydro-1H-pyrazolo[3,4-c]pyridine-3-carboxamide] was tested, and the IC50 was 213 nM.
